Data set [1] deals with T1, gabapentin receptor (Rattus norvegicus, UniProt P54290).
T1 construct: a gabapentin receptor was prepared from the brains of Wister rats; from tissue; host or cells: Wistar rat brain, prepared by the method of Suman-Chauhan et al. 1993
Description: Binding to gabapentin receptor (inhibition of [3H]gabapentin binding). The settings on record: compound 1 μM; 0.02 μM [3H] gabapentin; receptor from brains of Wister rats. How it is done: According to the method of Suman-Chauhan et al. (Eur. J. Pharmacol, 244 (3), pp. 293-301, 1993), a gabapentin receptor was prepared from the brains of Wister rats. Binding of the following compounds (1 μM) to the gabapentin receptor was investigated on the basis of inhibition of binding of gabapentin in the presence of 0.02 μM [^3H] gabapentin. As a result, the following inhibition ratios were observed. • 4-Amino-3-(trimethylsilyl)butanoic acid: 35% • 4-Amino-3-(t-butyldimethylsilyl)butanoic acid: 13% • 4-Amino-3-(trimethylsilylmethyl)butanoic acid: 28% • 4-Amino-3-(dimethyl-n-octylsilyl)butanoic acid: 32%

The test system of data set [2] is rat Chung model. Description: Analgesic action test using Chung model. Type of data set: in vivo. The settings on record: single oral administration, 30 minutes after, physical stimulation, N=6. How it is done:
A rat Chung model was used. 4-Amino-3-(trimethylsilyl)butanoic acid (Compound A), 4-amino-3-(trimethylsilylmethyl)butanoic acid (Compound B), 4-amino-3-[(1-methyl-1-silacyclopentan-1-yl)methyl]butanoic acid (Compound C), 4-(1-methyl-1-silacyclohexan-1-yl)-3-cyanobutanoic acid (Compound D), and pregabalin (positive control, Compound E) were each orally administered once to the rats, and analgesic action was examined 30 minutes thereafter on the basis of pain threshold values obtained with a physical stimulation (total number of groups: 11, N=6). As a result, the pain threshold values (g) of the agent-administered groups and the control group were as follows. • Control (0.5% MC): 5.3±0.4 • Compound A: 7.8±0.5 (60 mg/kg), 6.2±0.4 (20 mg/kg) • Compound B: 7.9±0.4 (60 mg/kg), 5.4±0.2 (20 mg/kg) • Compound C: 8.8±0.3 (60 mg/kg), 5.7±0.6 (20 mg/kg) • Compound D: 7.3±0.5 (60 mg/kg), 4.8±0.2 (20 mg/kg) • Compound E: 8.3±0.2 (30 mg/kg), 6.3±0.3 (10 mg/kg)

The values that follow come from patent publication US8895769B2, “Silicon-containing carboxylic acid derivative” (Kemphys Ltd., priority 2011, dated 2014).

T1 sequence (P54290 25-944 limits assumed): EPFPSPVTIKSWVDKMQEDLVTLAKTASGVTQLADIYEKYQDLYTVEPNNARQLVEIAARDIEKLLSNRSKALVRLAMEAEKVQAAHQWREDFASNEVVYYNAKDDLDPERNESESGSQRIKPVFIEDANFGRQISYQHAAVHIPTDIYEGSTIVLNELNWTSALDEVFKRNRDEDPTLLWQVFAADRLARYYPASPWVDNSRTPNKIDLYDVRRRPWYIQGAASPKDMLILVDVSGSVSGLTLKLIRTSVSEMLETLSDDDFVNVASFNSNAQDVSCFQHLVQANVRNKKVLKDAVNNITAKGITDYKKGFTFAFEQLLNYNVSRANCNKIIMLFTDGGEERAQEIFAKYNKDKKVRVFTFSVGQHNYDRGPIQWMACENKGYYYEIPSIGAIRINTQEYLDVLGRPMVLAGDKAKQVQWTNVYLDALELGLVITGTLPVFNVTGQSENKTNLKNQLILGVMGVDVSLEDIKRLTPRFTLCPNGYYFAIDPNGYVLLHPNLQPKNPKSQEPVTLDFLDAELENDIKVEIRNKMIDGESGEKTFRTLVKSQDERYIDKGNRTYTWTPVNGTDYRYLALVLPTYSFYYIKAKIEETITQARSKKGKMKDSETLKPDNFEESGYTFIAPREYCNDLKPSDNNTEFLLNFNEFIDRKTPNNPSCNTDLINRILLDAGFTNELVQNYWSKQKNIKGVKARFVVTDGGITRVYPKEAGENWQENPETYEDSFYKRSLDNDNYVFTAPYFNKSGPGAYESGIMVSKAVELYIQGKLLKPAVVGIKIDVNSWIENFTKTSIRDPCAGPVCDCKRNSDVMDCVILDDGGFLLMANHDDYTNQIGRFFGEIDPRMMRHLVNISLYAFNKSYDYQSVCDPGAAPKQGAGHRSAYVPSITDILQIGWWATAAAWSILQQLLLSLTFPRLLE
T1 sequence (P54290 945-1091 limits assumed): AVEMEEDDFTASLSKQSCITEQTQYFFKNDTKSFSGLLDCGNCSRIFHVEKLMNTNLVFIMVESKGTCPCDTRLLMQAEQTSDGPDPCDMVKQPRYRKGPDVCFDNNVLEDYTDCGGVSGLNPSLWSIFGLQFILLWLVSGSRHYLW

For `C[Si]1(C(CN)CC(=O)O)CCCCC1` (stereo not drawn), the melting point is 160 to 161.5 °C.
Same read-out and setting: for `C[Si]1(CC(CN)CC(=O)O)CCCCC1` (stereo not drawn) the value was 140.5 to 143 °C.
As to `CCCCCCCC[Si](C)(C)C(CN)CC(=O)O` (stereo not drawn) [4-amino-3-(dimethyl-n-octylsilyl)butanoic acid], the “inhibition ratio (inhibition of binding of gabapentin)” value (shortened to “inhibition ratio”) in data set [1] is on record as 32%.
In the case of `CC(C)(C)[Si](C)(C)C(CN)CC(=O)O` (stereo not drawn) [4-amino-3-(tert-butyldimethylsilyl)butanoic acid], the “inhibition ratio” value in data set [1] worked out at 13%.
`C[Si](C)(C)C(CN)CC(=O)O` (stereo not drawn) [Compound A, 4-amino-3-(trimethylsilyl)butanoic acid] had a melting point of 199 to 201 °C. The pain threshold value in data set [2] (20 mg/kg) is 6.2 ± 0.4 g. Further, in data set [2] (60 mg/kg), the pain threshold value was 7.8 ± 0.5 g. Also, the “inhibition ratio” value in data set [1] is given as 35%.
In the case of `C[Si](C)(C)CC(CN)CC(=O)O` (stereo not drawn) [Compound B, 4-amino-3-(trimethylsilylmethyl)butanoic acid], the figures for the pain threshold value in data set [2] (20 mg/kg) and in data set [2] (60 mg/kg) were 5.4 ± 0.2 g and 7.9 ± 0.4 g, respectively. In addition, the “inhibition ratio” value in data set [1] was found to be 28%.
Take `C[Si]1(CC(CN)CC(=O)O)CCCC1` (stereo not drawn) [Compound C, 4-amino-3-[(1-methyl-1-silacyclopentan-1-yl)methyl]butanoic acid]: the melting point is 133 to 135 °C. Also, the pain threshold value in data set [2] (20 mg/kg) amounted to 5.7 ± 0.6 g. The same compound came in with a pain threshold value in data set [2] (60 mg/kg) of 8.8 ± 0.3 g.
For the compound `C[Si]1(CC(C#N)CC(=O)O)CCCCC1` (stereo not drawn) [Compound D, 4-(1-methyl-1-silacyclohexan-1-yl)-3-cyanobutanoic acid], the pain threshold value in data set [2] (20 mg/kg) came out at 4.8 ± 0.2 g; in data set [2] (60 mg/kg) it was 7.3 ± 0.5 g.
Consider `CC(C)C[C@H](CN)CC(=O)O` [Compound E, (S)-3-(aminomethyl)-5-methylhexanoic acid, reference compound], for which the values for the pain threshold value in data set [2] (10 mg/kg) and in data set [2] (30 mg/kg) were 6.3 ± 0.3 g and 8.3 ± 0.2 g, respectively.

The term melting point denotes the temperature, or range, at which the solid turns liquid.
